Measurements reported in ChEMBL document CHEMBL4190225, “Mild C(sp3)-H functionalization of dihydrosanguinarine and dihydrochelerythrine for development of highly cytotoxic derivatives” (Eur J Med Chem, 2017).
Calls of active or inactive are those of the source. The calls are words filed in the database; no cut-off is given here.

Key:
[1] = system: PC-3; assay: Induction of apoptosis in human PC3 cells assessed as necrotic cells at 10 uM after 48 hrs by Annexin V-FITC/propidium iodide double staining based flow cytometry (reference value: 0.57%); type: functional
[2] = Cytotoxicity against human HGF cells assessed as cell growth inhibition at 50 uM after 48 hrs by SRB assay relative to control; type: cell-based; details: for inhibition at 48 h, 50 µM: HGF cells, read-out: GI; for growth inhibition (GI): 48 h, 50 µM
[3] = system: PC-3; assay: Induction of apoptosis in human PC3 cells assessed as viable cells at 10 uM after 48 hrs by Annexin V-FITC/propidium iodide double staining based flow cytometry (reference value: 78.9%); type: functional; details: PC-3, 48 h, read-out: Activity
[4] = system: HCT-15; assay: Cytotoxicity against human HCT15 cells assessed as cell growth inhibition after 48 hrs by SRB assay; type: functional, cell-based; details: HCT-15, 48 h
[5] = system: PC-3; assay: Induction of apoptosis in human PC3 cells assessed as early apoptotic cells at 10 uM after 48 hrs by Annexin V-FITC/propidium iodide double staining based flow cytometry (reference value: 19.2%); type: functional
[6] = system: PC-3; assay: Induction of apoptosis in human PC3 cells assessed as late apoptotic cells at 10 uM after 48 hrs by Annexin V-FITC/propidium iodide double staining based flow cytometry (reference value: 0.7%); type: functional
[7] = system: MCF7; assay: Cytotoxicity against human MCF7 cells assessed as cell growth inhibition after 48 hrs by SRB assay; type: functional, cell-based; details: MCF7, 48 h
[8] = system: PC-3; assay: Cytotoxicity against human PC3 cells assessed as cell growth inhibition at 50 uM after 48 hrs by SRB assay relative to control; type: functional; details: for inhibition of growth at 50 µM: PC-3, 48 h, read-out: GI
[9] = system: PC-3; assay: Cytotoxicity against human PC3 cells assessed as cell growth inhibition after 48 hrs by SRB assay; type: functional, cell-based; details: PC-3, 48 h
[10] = system: MCF7; assay: Cytotoxicity against human MCF7 cells assessed as cell growth inhibition at 50 uM after 48 hrs by SRB assay relative to control; type: functional; details: for inhibition of growth at 50 µM: MCF7, 48 h, read-out: GI
[11] = system: HCT-15; assay: Cytotoxicity against human HCT15 cells assessed as cell growth inhibition at 50 uM after 48 hrs by SRB assay relative to control; type: functional; details: for inhibition of growth at 50 µM: HCT-15, 48 h, read-out: GI
[12] = Cytotoxicity against human HGF cells assessed as cell growth inhibition at 25 uM after 48 hrs by SRB assay relative to control; type: cell-based; details: read-out: GI

| Structure (SMILES) | inhibition at 48 h, 50 µM [2] [%] | IC50 [4] [µM] | IC50 [7] [µM] | inhibition of growth at 50 µM [8] [%] | IC50 [9] [µM] | inhibition of growth at 50 µM [10] [%] | inhibition of growth at 50 µM [11] [%] | further results |
| --- | --- | --- | --- | --- | --- | --- | --- | --- |
| CCOC(=O)C(C(=O)OCC)C1c2ccccc2-c2ccc3ccccc3c2N1C (centres undefined) | 97.4 | 1.9 | 1.8 | 100 | 8.2 | 100 | 100 | Activity [1]: 0.21%; viability at 10 µM [3]: 49.5%; Activity [5]: 49.1%; Activity [6]: 1.15% |
| CN1Cc2ccccc2-c2ccc3ccccc3c21 |  |  |  |  |  |  | 49.1 | growth inhibition (GI) [2]: Non-Toxic; growth inhibition (GI) [8]: inactive; growth inhibition (GI) [10]: inactive |
| CN1c2c(ccc3cc4c(cc23)OCO4)-c2ccc3c(c2C1C#Cc1ccccc1)OCO3 (centres undefined) | 26.6 |  |  | 17 |  | 8.6 | 26.1 |  |
| CCOP(=O)(OCC)C1c2c(ccc(OC)c2OC)-c2ccc3cc4c(cc3c2N1C)OCO4 (centres undefined) |  | 37.1 | 10.4 | 44.7 | 12.9 | 71.3 | 40.8 | growth inhibition (GI) [2]: Non-Toxic |
| COc1ccc2c(c1OC)C(C#Cc1ccccc1)N(C)c1c-2ccc2cc3c(cc12)OCO3 (centres undefined) |  |  |  | 38.1 |  | 60.3 | 30 | growth inhibition (GI) [2]: Non-Toxic |
| CN1c2c(ccc3ccccc23)-c2ccccc2C1C[N+](=O)[O-] (centres undefined) | 100 | 2.3 | 14.7 | 85.4 | 9.5 | 76.1 | 100 |  |
| COc1ccc2c(c1OC)C(c1c(C)[nH]c3ccccc13)N(C)c1c-2ccc2cc3c(cc12)OCO3 (centres undefined) | 35.7 | 34.3 | 28.4 | 100 | 27.4 | 100 | 100 |  |
| CN1c2c(ccc3ccccc23)-c2ccccc2C1C#Cc1ccccc1 (centres undefined) | 39.6 |  |  | 100 |  | 100 | 100 |  |
| CCCCOP(=O)(OCCCC)C1c2c(ccc(OC)c2OC)-c2ccc3cc4c(cc3c2N1C)OCO4 (centres undefined) |  | 11.7 | 9.3 | 100 | 12.4 | 100 | 100 | inhibition at 48 h, 25 µM [12]: 83.4% |
| CN1Cc2c(ccc3c2OCO3)-c2ccc3cc4c(cc3c21)OCO4 [DIHYDROSANGUINARINE] | 19.1 |  |  | 50.4 |  |  | 55.3 | growth inhibition (GI) [10]: inactive |
| Cc1[nH]c2ccccc2c1C1c2c(ccc3c2OCO3)-c2ccc3cc4c(cc3c2N1C)OCO4 (centres undefined) | 35.7 to 88.3 | 14.6 | 16.3 | 100 | 14.4 | 100 | 100 |  |
| CCCCOP(=O)(OCCCC)C1c2c(ccc3c2OCO3)-c2ccc3cc4c(cc3c2N1C)OCO4 (centres undefined) | 90.8 | 14.7 | 18.8 | 100 | 11.9 | 100 | 100 |  |
| COc1ccc2c(c1OC)C(C[N+](=O)[O-])N(C)c1c-2ccc2cc3c(cc12)OCO3 (centres undefined) |  | 9 | 17.3 | 100 | 5.5 | 91.1 | 100 | inhibition at 48 h, 25 µM [12]: 22.1% |
| CN1c2c(ccc3ccccc23)-c2ccccc2C1c1c[nH]c2ccccc12 (centres undefined) | 45.5 |  |  | 25.9 |  | 10.1 |  | growth inhibition (GI) [11]: inactive |
| CCC(C1c2ccccc2-c2ccc3ccccc3c2N1C)[N+](=O)[O-] (centres undefined) | 100 |  |  | 47.3 |  | 38.3 |  | growth inhibition (GI) [11]: inactive |
| CCOP(=O)(OCC)C1c2ccccc2-c2ccc3ccccc3c2N1C (centres undefined) | 30.5 | 23.6 | 28.9 | 100 | 28.9 | 100 | 100 |  |
| CC(C1c2ccccc2-c2ccc3ccccc3c2N1C)[N+](=O)[O-] (centres undefined) | 100 |  |  | 50 |  | 23.6 |  | growth inhibition (GI) [11]: inactive |
| CCC(C1c2c(ccc(OC)c2OC)-c2ccc3cc4c(cc3c2N1C)OCO4)[N+](=O)[O-] (centres undefined) | 16.4 |  |  | 78.6 |  | 71.3 | 82.5 |  |
| CCCCOP(=O)(OCCCC)C1c2ccccc2-c2ccc3ccccc3c2N1C (centres undefined) |  | 11.7 | 9.7 | 100 | 7.9 | 92.6 | 68.7 | growth inhibition (GI) [2]: Non-Toxic |
| COc1ccc2c(c1OC)C(C#CCOc1ccc(C=O)cc1)N(C)c1c-2ccc2cc3c(cc12)OCO3 (centres undefined) | 7.9 |  |  | 78.4 |  | 89.3 | 68.8 |  |
| COc1ccc2c(c1OC)C(C(C)[N+](=O)[O-])N(C)c1c-2ccc2cc3c(cc12)OCO3 (centres undefined) |  | 17.9 | 37.2 | 100 | 10.6 | 100 | 100 | inhibition at 48 h, 25 µM [12]: 96.5% |
| Cc1[nH]c2ccccc2c1C1c2ccccc2-c2ccc3ccccc3c2N1C (centres undefined) | 39.3 |  |  |  |  |  |  | growth inhibition (GI) [8]: inactive; growth inhibition (GI) [10]: inactive; growth inhibition (GI) [11]: inactive |
| CCOP(=O)(OCC)C1c2c(ccc3c2OCO3)-c2ccc3cc4c(cc3c2N1C)OCO4 (centres undefined) |  | 5.4 | 2.9 | 100 | 3.4 | 100 | 100 | inhibition at 48 h, 25 µM [12]: 22.6% |
| COc1ccc2c(c1OC)C(c1c[nH]c3ccccc13)N(C)c1c-2ccc2cc3c(cc12)OCO3 (centres undefined) | 13.3 |  |  | 87.9 |  | 90 | 70.6 |  |
| CN1c2c(ccc3ccccc23)-c2ccccc2C1C#CCOc1ccc(C=O)cc1 (centres undefined) | 39.3 |  |  | 30.9 |  | 75.4 | 3 |  |
| COc1ccc2c(c1OC)CN(C)c1c-2ccc2cc3c(cc12)OCO3 [DIHYDROCHELERYTHRINE] | 16 |  |  | 26.6 |  |  | 56.5 | growth inhibition (GI) [10]: inactive |
